Assay results taken from patent US12344599B2, “Prodigiosin analogs and methods of use” (Institute For Cancer Research, priority 2016, dated 2025).
Read-outs that look alike come from different tables or passages of the source. * marks the point of attachment. Cbz = O=C(OCc1ccccc1)*; CH2F = FC*

Experiments:
Format in all cases: cell-based, human
[1] = tested on: HT29 cells; assay: Flow cytometry sub-G1 (PI staining) analysis; conditions: HT29, 20 μM Z-VAD-FMK co-treated with 1 μM PG3-Oc, 48 hours
Experimental: • 1) Cell lines: HT29, SW480, DLD-1, HCT116, and p53-null HCT116 cells, H1975, MDA-MD-231, U251, FaDu, CAL-27, PANC-1, Aspc-1, and MRC5 were obtained from the ATCC and cultured as recommended. Cells were regularly authenticated by bioluminescence, growth, and morphologic observation. The cells were routinely examined for Mycoplasma and all cell lines underwent STR authentication. • 2) Western blotting: After treatment, protein lysates were collected for Western blot analysis. 15 μg of protein was used for SDS-PAGE. After primary and secondary antibody incubations, the signal was detected by chemiluminescent detection kit, imaged by Syngene (Imgen Technologies). Antibodies for Puma, FLIPL/S and p53 (Santa Cruz Biotechnology), cleaved caspase 8, caspase 9, caspase 3, cleavage PARP, eIF2α, p-eIF2α(Ser51), CHOP, ATF4, DR5, FOXO3a, p-FOXO3a(Ser253), NF-κB p65, p-NF-κB p65(Ser536), c-Jun, p-c-Jun(Ser63), JNK, p-JNK(Thr183/Tyr185) (Cell Signaling Technology), Noxa, p21 (Calbiochem), p73 (Bethyl laboratories Inc), Ran (BD Biosciences), […] (Sigma). • 3) Cell viability assay: Cells were seeded in 96-well plate (6×10^3 cells/well). Cells were treated with different concentrations of compounds or dimethyl sulfoxide (DMSO) control for 72 hours. The cell viability was assessed by CellTiterGlo bioluminescent cell proliferation assay (Promega), following the manufacturer's protocol. Bioluminescence imaging was measured using the IVIS imager. Percentage of cell viability (mean±SEM) at each dose was calculated against the respective DMSO control. The IC50 values were determined from the sigmoidal dose-response curves using GraphPad Prims4. • 4) Caspase activity assay: Cells were seeded in 96-well plate (1×10^4 cells/well). Cells were treated with different concentrations of compounds or DMSO control for 24 hours. The caspase 3/7 activity was assessed by Caspase-Glo® 3/7 Assay kit (Promega), following the manufacturer's protocol. Bioluminescence imaging was measured using the IVIS imager. Caspase activity was normalized to cell numbers and compared to those of DMSO treatment as control in each cell line. Data is reported as mean RLU+SEM (n=3). • 5) Colony formation assays: Five hundred cells were seeded per well on 6-well plates and treated with different concentrations of compounds for 24 hours, then, cells were cultured with drug-free complete medium for 2 weeks with fresh medium changed every 7 days. Cells were fixed with 10% formalin and stained with 0.05% crystal violet at the end of 2 weeks period of cell culture. • 6) Flow cytometry assay: • a) Cell Cycle Analysis: Propidium iodide (PI) staining and flow cytometry were used to determine the degree of cellular apoptosis. Cells were seeded at 3×10^5 cells/well in six-well plates. Cells were treated with PG3-Oc for 48 hours. Cells were harvested, fixed by 70% ethanol, and stained by propidium iodide, then flow cytometry was performed as previously described (Smithen et al., Org. Biomol. Chem., 2013, 11, 62-68). The percentage of hypodiploid cells (sub-G1) was used to quantify dead cells in apoptosis assays. • b) Early apoptosis detection: Cells were seeded at 3×10^5 cells/well in six-well plates. Cells were treated with PG3-Oc for 48 hours. […]

[2] = tested on: SW480, DLD1 and p53-null cell line HCT116; assay: CellTiter-Glo luminescent cell viability assay (Example 1)
Experimental: SW480, DLD-1, DLD1-p73KD, HCT116, and p53-null HCT116, MRC5 and Wi38 cells were seeded at 5,000 cells per well on 96-well plates. […] Then, cells were mixed with an equal volume of CellTiter-Glo® reagents (Promega), following the manufacturer's protocol, and bioluminescence imaging was measured using the IVIS imager.

[3] = tested on: p53-target genes; assay: Western blotting of p53-target genes (Example 1)
Experimental: After treatment, protein lysates were collected for Western blot analysis. Twenty-five micrograms of protein were used for SDS-PAGE. After primary and secondary antibody incubations, the signal was detected with a chemiluminescent detection kit, followed by autoradiography or Syngen. […] In FIG. 10, p53-null HCT116 cells were treated with P01 and P306, alone or in combination with SiCon or SiTAp73, in various concentrations for 6 hours, and tested for p73 (C.S.), p73 (Bethyl), P63-α, p53, DR5, Puma, P21, and Ran proteins.

[4] = tested on: γ-H2AX in HT29 and SW480 cells; assay: γ-H2AX DNA damage marker, western blot and immunofluorescence staining
Experimental: (§1) After treatment, protein lysates were collected for Western blot analysis. A total of […] of protein was used for SDS-PAGE. After primary and secondary antibody incubations, the signal was detected by a chemiluminescence detection kit, imaged by Syngene (Imgen Technologies). Antibodies for PUMA (for IHC), p53 (Santa Cruz Biotechnology), caspase 8, cleaved caspase 8, caspase 9, caspase 3, cleavage PARP, eIF2α, p-eIF2α (Ser51), CHOP, ATF4, DR5, FOXO3a, p-FOXO3a (Ser253), NF-κB p65, p-NF-κB p65 (Ser536), c-Jun, p-c-Jun (Ser63), JNK, p-JNK (Thr183/Tyr185), PUMA (for WB), c-Myc, phosphor-S62-cMyc (Cell Signaling Technology), Noxa, p21 (Calbiochem), p73 (Bethyl laboratories Inc), Ran (BD Biosciences), […] (Sigma).
A total of 5×10^4 cells were seeded in each well of 8-well chamber slides. After treatment, cells were fixed and permeabilized by methanol:acetone (1:1) for 20 minutes at −20° C. Fixed cells were blocked by 2% BSA for 1 hour, followed by primary antibody incubation for 1 hours and Cy3-conjuated secondary antibody incubation for 1 hour at room temperature. After washing, cells were stained with DAPI for 10 minutes at room temperature. Cells were mounted, and examined by fluorescence microscopy.
DNA damage induces the p53 pathway and leads to cell apoptosis. To study whether the p53 pathway restoration by compound PG3-Oc is due to DNA damage, the uptake and localization of PG3-Oc was investigated in cells. PG3-Oc and prodigiosin are red fluorescent compounds, and their localization in live cells can be monitored by fluorescence microscopy. PG3-Oc and prodigiosin rapidly entered cells within 2 hours of incubation and remained in the cytosol at the 8-hour time point in HT29 and SW480 cells (FIG. 46). […] Baldino, et al. reported that prodigiosin localized to the cytoplasm, but not within the nucleus, and no γ-H2AX signal was detected in A549 cancer cells (Baldino et al., Bioorg Med Chem Lett, 2006, 16, 701-704). […]

[5] = tested on: c-Myc and PUMA; assay: Western blot of c-Myc, PUMA and p53 target genes; conditions: HT29 cells
Experimental: as §1
To test this hypothesis, two ERK1/2 inhibitors that act by different mechanisms were used. U0126 is an indirect ERK1/2 inhibitor. It inhibits MEK1 kinase and blocks the phosphorylation of ERK1/2. […] Consistent with a previous publication (Choi et al., Genes Dev, 2010, 24, 1236-1241), SCH772984 can inhibit ERK1/2 function after ERK1/2 is phosphorylated (FIG. 73), and the same is observed for PG3-Oc (FIG. 73).

Compound: Cbz-Val-Ala-Asp-CH2F [reference compound]
- formation of a sub-G1 population induced by PG3-Oc [1]: completely blocked

Compound: CCc1c(C)[nH]c(/C=C2\N=C(c3ccc[nH]3)C=C2OC)c1C [P301]
- induction of cell death ([2]; SW480, DLD1, p53-null HCT116): potently induced cell death
- IC50 values ([2]; SW480, DLD1, p53-null HCT116, 72 hours): within nanomolar range
- expression of p53-target genes [3]: induced the expression of p53-target genes via p73

Compound: CCc1c2c(nc3ccc(OC(=O)N4CCC(N5CCCCC5)CC4)cc13)-c1cc3c(c(=O)n1C2)COC(=O)[C@]3(O)CC [CPT-11, Irinotecan]
- induction of 65-H2AX (DNA damage marker) / foci formation [4]: significantly induced

Compound: O=C(Nc1ccc2[nH]nc(-c3ccncc3)c2c1)[C@@H]1CCN(CC(=O)N2CCN(c3ccc(-c4ncccn4)cc3)CC2)C1 [SCH772984]
- effect on c-Myc and PUMA [5]: potently induced the downregulation of c-Myc and the upregulation of PUMA
- effect on p53 target genes DR5, p21 and Noxa [5]: did not induce DR5, shown mild upregulation of p21 and suppressed Noxa expression

Compound: N#CC(=C(/N)Sc1ccccc1N)/C(C#N)=C(\N)Sc1ccccc1N [U0126]
- effect on c-Myc and PUMA [5]: potently induced the downregulation of c-Myc and the upregulation of PUMA

Compound: CCCCCc1cc(/C=C2\N=C(c3ccc[nH]3)C=C2OC)[nH]c1C [prodigiosin, Prodigiosin]
- induction of 65-H2AX (DNA damage marker) / foci formation ([4]; HT29 and SW480, 8-hour treatment): did not induce
